Assay results from ChEMBL document CHEMBL5543066, “Dual COX-2/15-LOX inhibitors: A new avenue in the prevention of cancer” (Eur J Med Chem, 2023).

Tests used:
[1] = Inhibition of soybean 15-LOX by chemiluminescence based analysis; design: species or system Glycine max
[2] = target: T1, Prostaglandin G/H synthase 2 (Homo sapiens, UniProt P35354); test: Inhibition of human recombinant COX-2
T1 sequence (P35354 whole entry): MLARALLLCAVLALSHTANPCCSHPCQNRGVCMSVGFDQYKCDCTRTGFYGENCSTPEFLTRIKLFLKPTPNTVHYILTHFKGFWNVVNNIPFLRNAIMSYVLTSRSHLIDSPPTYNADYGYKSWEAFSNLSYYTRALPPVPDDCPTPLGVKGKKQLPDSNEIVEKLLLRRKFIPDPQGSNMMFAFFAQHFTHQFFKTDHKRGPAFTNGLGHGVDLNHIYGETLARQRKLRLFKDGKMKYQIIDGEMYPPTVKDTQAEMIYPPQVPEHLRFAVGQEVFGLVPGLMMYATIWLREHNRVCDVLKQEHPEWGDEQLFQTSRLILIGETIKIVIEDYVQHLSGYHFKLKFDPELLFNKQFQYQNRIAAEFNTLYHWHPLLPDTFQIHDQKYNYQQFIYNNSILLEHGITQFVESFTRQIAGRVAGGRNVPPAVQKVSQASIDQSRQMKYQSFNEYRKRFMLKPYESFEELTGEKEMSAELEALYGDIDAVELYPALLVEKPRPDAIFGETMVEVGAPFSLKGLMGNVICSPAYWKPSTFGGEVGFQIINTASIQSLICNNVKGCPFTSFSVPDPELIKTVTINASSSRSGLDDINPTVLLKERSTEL

[3] = Inhibition of soybean lipoxygenase; design: species or system Glycine max
[4] = target: T1, Prostaglandin G/H synthase 2; test: Inhibition of COX-2 (unknown origin) by Enzyme immune assay
[5] = Inhibition of soybean 15-LOX by spectrophotometric method; design: species or system Glycine max
[6] = target: T1, Prostaglandin G/H synthase 2; test: Inhibition of COX-2 (unknown origin)
[7] = Inhibition of soybean 15-LOX; design: species or system Glycine max
Mononuclear cell line = test: Induction of apoptosis in human Mononuclear cell line assessed as early apoptosis at 10 uM incubated for 48 hrs by AnnexinV-FITC/PI staining based flow cytometry relative to control; format: functional
[8] = Inhibition of soybean 15-LOX colorimetric assay; design: species or system Glycine max
Rattus norvegicus = test: Anti-inflammatory activity against carrageenan-induced paw edema in Wistar albino rat assessed as inhibition of paw edema at 50 mg/kg, sc administered for 14 days relative to control; format: functional; design: scale not given: the % may be the effect or the level left; details: time 14 day
[9] = Inhibition of human recombinant sPLA2-V
[10] = target: T2, Seed linoleate 13S-lipoxygenase-1 (Glycine max, UniProt P08170); test: Inhibition of soybean LOX-1 using linoleic acid as substrate
T2 sequence (P08170 whole entry): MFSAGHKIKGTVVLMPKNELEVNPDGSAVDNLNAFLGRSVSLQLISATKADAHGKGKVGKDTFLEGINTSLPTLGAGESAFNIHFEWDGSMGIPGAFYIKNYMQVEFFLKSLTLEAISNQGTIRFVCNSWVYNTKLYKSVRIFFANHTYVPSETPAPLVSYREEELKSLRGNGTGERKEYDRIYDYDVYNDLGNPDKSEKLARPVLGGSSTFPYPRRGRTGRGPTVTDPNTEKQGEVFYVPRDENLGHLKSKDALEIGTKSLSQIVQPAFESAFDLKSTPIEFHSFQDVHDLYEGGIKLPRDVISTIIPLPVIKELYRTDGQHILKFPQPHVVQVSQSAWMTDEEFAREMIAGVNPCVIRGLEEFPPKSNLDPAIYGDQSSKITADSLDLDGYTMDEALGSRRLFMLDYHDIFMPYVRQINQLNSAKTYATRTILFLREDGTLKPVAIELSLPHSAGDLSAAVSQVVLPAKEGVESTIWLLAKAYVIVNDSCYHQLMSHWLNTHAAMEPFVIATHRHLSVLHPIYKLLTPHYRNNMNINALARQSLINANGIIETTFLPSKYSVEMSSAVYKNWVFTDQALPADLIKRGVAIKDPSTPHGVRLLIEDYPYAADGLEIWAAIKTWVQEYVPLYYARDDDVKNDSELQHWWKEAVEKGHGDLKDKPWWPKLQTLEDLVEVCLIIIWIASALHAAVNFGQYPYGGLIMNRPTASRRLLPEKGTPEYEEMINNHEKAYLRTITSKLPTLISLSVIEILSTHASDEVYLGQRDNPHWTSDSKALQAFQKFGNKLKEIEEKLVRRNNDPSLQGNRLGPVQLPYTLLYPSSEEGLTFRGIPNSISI

[11] = target: Prostaglandin G/H synthase 1 (Homo sapiens) (UniProt P23219); test: Inhibition of human COX-1 at 10 uM relative to control
A549 = test: Anticancer activity against human A549 cells assessed as reduction in cell viability measured for 72 hrs by MTT assay; format: functional, cell-based; details: A549, 72 h
MCF7 = test: Antitumor activity against human MCF7 cells assessed as reduction in cell viability measured for 72 hrs by MTT assay; format: functional, cell-based; details: MCF7, 72 h
PC-3 = test: Antiproliferative activity against human PC-3 cells assessed as reduction in cell growth incubated for 72 hrs by MTT assay; format: functional, cell-based; details: PC-3, 72 h
Caco-2 = test: Antiproliferative activity against human Caco-2 cells assessed as reduction in cell growth incubated for 72 hrs by MTT assay; format: functional, cell-based; details: Caco-2, 72 h
HepG2 = test: Anticancer activity against human HepG2 cells assessed as cell viability measured after 72 hrs by MTT assay; format: functional, cell-based; details: HepG2, 72 h

Sequence of Prostaglandin G/H synthase 1 (Homo sapiens) (P23219 whole entry): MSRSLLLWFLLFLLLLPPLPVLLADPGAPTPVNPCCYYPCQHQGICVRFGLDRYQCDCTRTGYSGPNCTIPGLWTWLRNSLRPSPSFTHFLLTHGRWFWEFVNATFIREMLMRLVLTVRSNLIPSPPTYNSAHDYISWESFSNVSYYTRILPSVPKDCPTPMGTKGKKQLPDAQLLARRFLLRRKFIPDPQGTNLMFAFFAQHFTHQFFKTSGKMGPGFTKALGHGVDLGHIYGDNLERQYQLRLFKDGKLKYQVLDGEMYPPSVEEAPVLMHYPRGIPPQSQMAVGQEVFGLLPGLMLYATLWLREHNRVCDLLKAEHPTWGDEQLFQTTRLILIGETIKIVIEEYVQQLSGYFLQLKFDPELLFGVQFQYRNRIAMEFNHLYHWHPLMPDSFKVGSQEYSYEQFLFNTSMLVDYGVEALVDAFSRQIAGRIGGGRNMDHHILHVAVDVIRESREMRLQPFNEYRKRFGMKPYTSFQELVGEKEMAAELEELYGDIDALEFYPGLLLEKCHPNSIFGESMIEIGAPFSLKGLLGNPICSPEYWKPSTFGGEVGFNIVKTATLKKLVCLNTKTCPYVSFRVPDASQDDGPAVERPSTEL

## CCc1ccc(NC(=O)CSc2nnc(C3CCN(C(=O)Nc4ccccc4)CC3)o2)cc1
[1]
  IC50: 26.1 µM

## CN(C)c1ccc(/C=C/C(=O)c2cc(-n3cc(CN4C(=O)C(=O)c5ccccc54)nn3)ccc2O)cc1
[2]
  IC50: 1.41 µM

## COc1ccc(-c2nnc(N/N=C/c3ccc(F)cc3)nc2-c2ccc(OC)cc2)cc1
[3]
  IC50: 124 µM

## COc1ccc(/C(N)=N/OC(=O)C(C)c2ccc3cc(OC)ccc3c2)cc1 (stereo not given)
[4]
  IC50: 0.0064 µM

## CCOC(=O)c1sc(N/N=C/c2ccccc2)nc1C
[5]
  IC50: 0.12 µM

## O=C1N/C(=N\c2nnc(-c3ccc(O)cc3)s2)S/C1=C\c1ccccc1
[6]
  IC50: 0.07 µM
[7]
  IC50: 11 µM

## CN1C(C(=O)Nc2ccccn2)=C(O)c2sccc2S1(=O)=O [TENOXICAM]
[7]
  IC50: 49.5 µM

## Cc1ccc(NC(=O)CSc2nnc(C3CCN(C(=O)Nc4ccccc4)CC3)o2)c(C)c1
Mononuclear cell line
  Activity: 79.5%
[1]
  IC50: 26.1 µM

## O=C(O)Cc1ccccc1Nc1c(Cl)cccc1Cl [DICLOFENAC]
[7]
  IC50: 24.8 µM

## CCN(CC)C(=O)CSc1nnc(C2CCN(C(=O)Nc3ccccc3)CC2)o1
Mononuclear cell line
  Activity: 79.5%
[1]
  IC50: 15.8 µM

## CC(=O)Oc1ccccc1C(=O)O [ASPIRIN]
[7]
  IC50: 4.62 µM

## COc1ccc2cc(C(C)C(=O)ON=C(N)c3ccc(-c4ccccc4)c(-c4ccccc4)c3)ccc2c1 (stereo not given)
[4]
  IC50: 0.00177 µM

## CC(Cc1ccc(O)c(O)c1)C(C)Cc1ccc(O)c(O)c1 (stereo not given) [NORDIHYDROGUAIARETIC ACID]
[8]
  IC50: 8.5 µM

## C=CCc1cc(NC(=O)C23CC4CC(CC(C4)C2)C3)ccc1OC(C)C
[7]
  IC50: 1.35 µM

## CCOc1cc(C)nc2c(C#N)c(Nc3cc(OC)ccn3)nn12
Rattus norvegicus
  Activity: 46%
[9]
  IC50: 1.7 µM

## CCc1ccccc1NC(=O)CSc1nnc(C2CCN(C(=O)Nc3ccccc3)CC2)o1
[1]
  IC50: 7.15 µM

## CCOC(=O)c1sc(N/N=C/c2c(F)cccc2Cl)nc1C
[5]
  IC50: 0.12 µM

## O=C(CSc1nnc(C2CCN(C(=O)Nc3ccccc3)CC2)o1)Nc1ccccc1
[1]
  IC50: 26.1 µM

## COc1ccc(/C=C/C(=O)c2cc(-n3cc(CN4C(=O)C(=O)c5ccccc54)nn3)ccc2O)cc1
[2]
  IC50: 1.41 µM

## Cc1cc(C)cc(NC(=O)CSc2nnc(C3CCN(C(=O)Nc4ccccc4)CC3)o2)c1
Mononuclear cell line
  Activity: 79.5%
[1]
  IC50: 26.1 µM

## COc1ccc(Cn2cc(COc3ccc(/C=C4\SC(=O)NC4=O)cc3)nn2)cc1
[1]
  IC50: 5.24 µM

## Cc1ccc(C)c(NC(=O)CSc2nnc(C3CCN(C(=O)Nc4ccccc4)CC3)o2)c1
[1]
  IC50: 26.1 µM

## O=C(/C=C/c1ccc(Br)cc1)c1cc(-n2cc(CN3C(=O)C(=O)c4ccccc43)nn2)ccc1O
[2]
  IC50: 1.41 µM

## Cc1ccc(OCc2nnc(SCC(=O)Nc3ccccc3)o2)cc1
[7]
  IC50: 21.5 µM

## COc1ccnc(Nc2nn3c(C)cc(C)nc3c2C#N)c1
Rattus norvegicus
  Activity: 46%
[8]
  IC50: 5.6 µM

## CC(=O)c1cc2ccc(OC/C=C(\C)CC/C=C(\C)CCC=C(C)C)cc2oc1=O
[10]
  IC50: 0.68 µM

## CCOc1cc(N)n2nc(Nc3cc(OC)ccn3)c(C#N)c2n1
Rattus norvegicus
  Activity: 46%

## CC(C)(C)Nc1c(-c2cc3ccccc3nc2Cl)nc2sccn12
[7]
  IC50: ≤ 40 µM

## CC(=O)Nc1ccc(O)cc1 [ACETAMINOPHEN]
[7]
  IC50: 6.52 µM

## CC(C(=O)O)c1cccc(C(=O)c2ccccc2)c1 (stereo not given) [KETOPROFEN]
[7]
  IC50: 24.8 µM

## Cc1cccc(C)c1NC(=O)CSc1nnc(C2CCN(C(=O)Nc3ccccc3)CC2)o1
[1]
  IC50: 18.4 µM

## COc1ccc2cc(C(C)C(=O)O/N=C(\N)c3ccc(Cl)cc3)ccc2c1 (stereo not given)
[4]
  IC50: 0.0064 µM

## Cc1cccc(Nc2ccccc2C(=O)O)c1C [MEFENAMIC ACID]
[7]
  IC50: 24.8 µM

## O=C(Cc1ccccc1Nc1c(Cl)cccc1Cl)N/N=C1\C(=O)N(Cc2ccccc2)c2ccc(Cl)cc21
[7]
  IC50: 4.61 µM

## CN1C(C(=O)Nc2ccccn2)=C(O)c2ccccc2S1(=O)=O [PIROXICAM]
[7]
  IC50: 62.6 µM

## O=c1c(O)c(-c2ccc(O)c(O)c2)oc2cc(O)cc(O)c12 [QUERCETIN]
Mononuclear cell line
  Activity: 4.26%
[7]
  IC50: 4.84 µM

## COc1ccc2cc(C(C)C(=O)O/N=C(\N)c3ccc(OC)c(OC)c3)ccc2c1 (stereo not given)
[4]
  IC50: 0.0064 µM

## O=c1cc(-c2ccccc2)oc2cc(O)c(O)c(O)c12 [BAICALEIN]
[7]
  IC50: 22.5 µM

## O=C(CSc1nnc(C2CCN(C(=O)Nc3ccccc3)CC2)o1)NC1CCCCC1
[1]
  IC50: 26.1 µM

## CCCNC(=O)CSc1nnc(C2CCN(C(=O)Nc3ccccc3)CC2)o1
[1]
  IC50: 9.32 µM

## COc1ccc2cc(C(C)C(=O)ON=C(N)c3ccc4c(c3)OCO4)ccc2c1 (stereo not given)
[4]
  IC50: 0.0064 µM

## COc1ccc(-c2nnc(N/N=C/c3ccc4c(c3)OCO4)nc2-c2ccc(OC)cc2)cc1
[11]
  inhibition: 50%

## Cc1ccc(Cl)c(Nc2ccccc2C(=O)O)c1Cl [MECLOFENAMATE SODIUM]
[4]
  IC50: 0.00564 µM

## CCn1c(-n2cc(/C=N/N=c3\scc(-c4ccc(Br)cc4)n3-c3ccccc3)c(-c3ccccc3)n2)nc2c1c(=O)n(C)c(=O)n2C
A549
  IC50: 18.5 µM
MCF7
  IC50: 18.5 µM
PC-3
  IC50: 18.5 µM
Caco-2
  IC50: 18.5 µM
HepG2
  IC50: 18.5 µM

## CCn1c(-n2cc(/C=N/N=C3\SCC(=O)N3c3ccccc3)c(-c3ccccc3)n2)nc2c1c(=O)n(C)c(=O)n2C
A549
  IC50: 18.5 µM
MCF7
  IC50: 18.5 µM
PC-3
  IC50: 18.5 µM
Caco-2
  IC50: 18.5 µM
HepG2
  IC50: 18.5 µM

## Cc1cccc(NC(=O)CSc2nnc(C3CCN(C(=O)Nc4ccccc4)CC3)o2)c1
[1]
  IC50: 26.1 µM

## O=C(Cc1ccccc1Nc1c(Cl)cccc1Cl)N/N=C1\C(=O)N(Cc2ccccc2)c2ccccc21
[7]
  IC50: 6.64 µM

## CC(c1cc2ccccc2s1)N(O)C(N)=O (stereo not given) [ZILEUTON]
[7]
  IC50: 15 µM

## COc1ccc2cc([C@H](C)C(=O)O)ccc2c1 [NAPROXEN]
[7]
  IC50: 3.52 µM

## Cc1ccc(NC(=O)CSc2nnc(C3CCN(C(=O)Nc4ccccc4)CC3)o2)cc1C
[1]
  IC50: 26.1 µM
